Data on seven compounds can be found in PubChem BioAssay (NCI).

The structures appear in SMILES notation.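 Grown in 96-well plates, cells were treated for 48 hours with each compound at five concentrations. Insufficient inhibition: endpoint recorded as highest concentration tested. At the TGI there is no net growth.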

Some test systems named below: SF-268 CNS; IGROV1 ovarian; HL-60(TB) leukemia; MALME-3M melanoma; U251 CNS; SK-MEL-28 melanoma; M14 melanoma; OVCAR-4 ovarian; HOP-62 NSCLC; EKVX NSCLC; KM12 colon; HCT-116 colon; LOX IMVI melanoma; UACC-257 melanoma; HCT-15 colon; SK-OV-3 ovarian; SN12C renal; SF-295 CNS; M19-MEL melanoma; SK-MEL-2 melanoma.
What all share (assay): NCI tumour cell line growth inhibition, 48 h

Take `COc1ccc(C(CC(=O)c2cccs2)C(=O)c2ccc3c(c2)OCO3)cc1` (centres undefined): the TGI in the assay with SF-268 CNS, in the assay on IGROV1 ovarian, in the assay with HL-60(TB) leukemia, in the assay with MALME-3M melanoma, in the assay on U251 CNS and in the assay on SK-MEL-28 melanoma was > 100 µM throughout. The TGI in the assay with M14 melanoma, in the assay on OVCAR-4 ovarian, in the assay on HOP-62 NSCLC, in the assay on EKVX NSCLC, in the assay on KM12 colon and in the assay with HCT-116 colon was > 100 µM in each case. Further, the TGI in the assay on LOX IMVI melanoma, with UACC-257 melanoma, with HCT-15 colon, with SK-OV-3 ovarian and in the assay on SN12C renal was > 100 µM throughout.
Turning to `CC(NC(CC12CC3CC(CC(C3)C1)C2)C(N)=O)c1ccccc1` (centres undefined), the TGI in the assay on SF-268 CNS is 61.2 µM; in the assay with IGROV1 ovarian, > 100 µM; in the assay on HL-60(TB) leukemia, 28.4 µM; with MALME-3M melanoma it was 34.3 µM; in the assay with U251 CNS, 26.1 µM; with SK-MEL-28 melanoma it was 40.4 µM. Moreover, the TGI is 45.7 µM with M14 melanoma; 28.4 µM with SF-295 CNS; 98.5 µM with OVCAR-4 ovarian; > 100 µM in the assay with HOP-62 NSCLC; > 100 µM in the assay with EKVX NSCLC; 42.2 µM in the assay on HCT-116 colon. For the same compound, the TGI with LOX IMVI melanoma is 30.7 µM; in the assay on UACC-257 melanoma, 41.8 µM; in the assay on HCT-15 colon, > 100 µM; in the assay on SK-OV-3 ovarian, > 100 µM.
Turning to `CCCOC(=O)CCC(NC(=O)c1ccc(Nc2nc3ccccc3nc2-c2cccs2)cc1)C(=O)OCCC` (centres undefined), the TGI was > 100 µM with SF-268 CNS; > 100 µM with IGROV1 ovarian; 88.9 µM in the assay with MALME-3M melanoma; > 100 µM with U251 CNS; > 100 µM in the assay on SK-MEL-28 melanoma; > 100 µM in the assay with M19-MEL melanoma. Also, the TGI in the assay with SK-MEL-2 melanoma is 59.9 µM; with SF-295 CNS it was > 100 µM; with OVCAR-4 ovarian, > 100 µM; with HOP-62 NSCLC, > 100 µM; in the assay on EKVX NSCLC, > 100 µM; in the assay on KM12 colon it was > 100 µM. The TGI in the assay with HCT-116 colon, in the assay with LOX IMVI melanoma, in the assay on HCT-15 colon, with SK-OV-3 ovarian and in the assay on SN12C renal was > 100 µM in each case.
As to `CC/C(CC(=O)CCC(=O)Nc1ccc(C)c(C)c1)=N\NC(=O)c1cc2ccccc2cc1O`, the TGI in the assay with SF-268 CNS is > 100 µM; in the assay on IGROV1 ovarian, 57.5 µM; in the assay on HL-60(TB) leukemia it was 8.68 µM; in the assay with MALME-3M melanoma, 92.6 µM; in the assay on U251 CNS it was > 100 µM; in the assay on SK-MEL-28 melanoma, 46.9 µM. Also, the TGI in the assay with M14 melanoma is 42.5 µM; in the assay on M19-MEL melanoma, > 100 µM; in the assay on SK-MEL-2 melanoma, > 100 µM; in the assay on SF-295 CNS, > 100 µM; in the assay on OVCAR-4 ovarian it was > 100 µM; in the assay with HOP-62 NSCLC, > 100 µM. Also, the TGI in the assay on EKVX NSCLC was 88.3 µM; in the assay with KM12 colon it was > 100 µM; with HCT-116 colon it was > 100 µM; in the assay with LOX IMVI melanoma, 81.1 µM; in the assay on UACC-257 melanoma it was > 100 µM; in the assay with HCT-15 colon, > 100 µM. In addition, the TGI in the assay on SK-OV-3 ovarian is 87.3 µM; in the assay on SN12C renal, > 100 µM.
`O=C(OC1C#CCSCC#C/C=C\1)c1ccc2c(c1)C(=O)c1ccccc1C2=O` (centres undefined): the TGI with SF-268 CNS was 69.1 µM; in the assay on IGROV1 ovarian it was > 100 µM; with HL-60(TB) leukemia it was > 100 µM; in the assay with MALME-3M melanoma it was > 100 µM; in the assay on U251 CNS it was 55.9 µM; in the assay on SK-MEL-28 melanoma, > 100 µM. Besides, the TGI in the assay on M14 melanoma was > 100 µM; in the assay on SK-MEL-2 melanoma it was > 100 µM; in the assay on SF-295 CNS, > 100 µM; in the assay on OVCAR-4 ovarian, > 100 µM; in the assay with HOP-62 NSCLC it was 42.8 µM; in the assay with EKVX NSCLC, > 100 µM. In addition, the TGI is > 100 µM in the assay on KM12 colon; > 100 µM with HCT-116 colon; > 100 µM in the assay with LOX IMVI melanoma; > 100 µM in the assay on UACC-257 melanoma; > 100 µM in the assay with HCT-15 colon; 70.6 µM with SK-OV-3 ovarian. Further, the TGI in the assay with SN12C renal is > 100 µM.
Consider `CN(C)CCCn1c(-c2ccc(Br)cc2)csc1=Nc1ccccc1`, for which the TGI in the assay on SF-268 CNS is 33.6 µM; with HL-60(TB) leukemia, > 100 µM; in the assay on U251 CNS, > 100 µM; in the assay on SK-MEL-28 melanoma, 53.3 µM; with M14 melanoma it was 32.9 µM; in the assay with SK-MEL-2 melanoma, 31 µM. Also, the TGI in the assay on SF-295 CNS is 25.4 µM; with OVCAR-4 ovarian it was 38 µM; in the assay on HOP-62 NSCLC, 26.4 µM; with EKVX NSCLC, 23.8 µM; with KM12 colon it was 26.4 µM; with UACC-257 melanoma, 29.8 µM. Also, the TGI is 71 µM with HCT-15 colon, 40.4 µM in the assay with SK-OV-3 ovarian and 70.9 µM in the assay with SN12C renal.
As for `Cc1c(CCCl)c(Cl)n2c(nc3ccccc32)c1C#N`, the TGI in the assay on SF-268 CNS was determined as 11.5 µM; in the assay with IGROV1 ovarian, 3.36 µM; in the assay on HL-60(TB) leukemia, 0.627 µM; in the assay with MALME-3M melanoma it was 2.62 µM; with U251 CNS, 2.34 µM; in the assay with SK-MEL-28 melanoma, 4.97 µM. The TGI in the assay on M14 melanoma was determined as 3.06 µM; with M19-MEL melanoma it was 9.76 µM; with SK-MEL-2 melanoma, 2.78 µM; with SF-295 CNS, 4.34 µM; in the assay with OVCAR-4 ovarian, 3.29 µM; with HOP-62 NSCLC, 4.8 µM. The TGI in the assay with EKVX NSCLC came to 25.3 µM; in the assay with KM12 colon it was 2.54 µM; with HCT-116 colon it was 0.891 µM; with LOX IMVI melanoma it was 0.878 µM; in the assay on UACC-257 melanoma, 3.07 µM; with HCT-15 colon it was 1.98 µM. Also, the TGI in the assay with SK-OV-3 ovarian was > 56.4 µM; with SN12C renal, 1.5 µM.
